Read-outs that look alike come from different tables or passages of the source.
System: Cluster 1 (213 genes)
Test: RNAseq whole blood transcriptomics, WGCNA Cluster 1 and pathway analysis
Set-up: species or system human
Protocol: In order to gain insights into ANAVEX 2-73 response pathways, during the Phase 2 study, patients' DNA and RNA sequencing were analyzed. Transcriptomic samples of 65 patients enrolled in either High Dose or Mid Dose arms were collected at baseline and at the end of treatment (Week 14). The expression of 14,150 genes was measured. No transformation was applied to the TPM values. Values associated with a with RIN s 4.0 were discarded. The actual dose of ANAVEX 2-73 (blarcamesine) that was given to each patient during the trial was assessed and integrated into the database. To characterize the gene dysregulations, a pathway database was built using an aggregation of public databases including KEGG, Panther, Allen, Brain Atlas, Gene Ontology, and Reactome.
The genes were clustered together using WGCNA, starting from their correlation of TPM expression values across samples. Seventeen clusters with size ranging from 13 to 11,190 genes were obtained through this gene clusterisation. The TPM expression values of genes in clusters were then aggregated in a single “eigengene” for each cluster. This eigengene served as a representant of the overall dysregulation of the cluster. Secondly, a cluster filtering was performed, wherein patients' arm and dose information were taken into account based on mixed effect models. For each cluster, the eigengene was used as target variable of a linear mixed effect model with 3 covariates: ActualDose, Patient, and timepoint. For each cluster, the contrast ActualDose, i.e. treated vs placebo were evaluated across all timepoints. P-values were obtained with Dunnett's test. Regardless of the cluster and pathway, pathways with less than 4 genes in a cluster were removed, to compensate for the large variability of cluster size and corresponding variability of number of pathways identified in each clusters. The ratio between cluster size and number of pathways was calculated, and top 2 clusters were retained for further Analysis. Cluster 1 contained 213 genes (n1=213) and 37 pathways, and Cluster 2 contained 962 genes (n2=962) and 317 pathways. […] Thirdly, the two retained clusters were characterized and underwent pathway analysis. The characterization and analysis were applied to all the genes of the cluster (whole cluster), and to the genes of the clusters that are known to have biological interactions (reduced cluster). In the whole cluster analysis, overrepresented pathways were identified using EnrichR package with the parameters of Fisher's adjusted p-value p<0.05 (Benjamini-Hochberg adjustment for multiple testing) and minimum pathway size 20. In the reduced cluster analysis, genes that have no interaction with any other genes of the cluster were discarded, resulting in a reduced cluster. Pathway analysis was performed on these reduced clusters. False Discovery Rate with adjustment for multiple testing (Benjamini-Hochberg procedure) was used to characterize pathways' over-representation. Known interactions between the genes of the cluster were assessed using STRING database with the parameters of Edge score >0.150, and no text mining edges. Known interactions were obtained from public databases, such as KEGG, Panther, Allen, Brain Atlas, Gene Ontology, and Reactome.
Whole Blood Transcriptomics Analysis (RNAseq) of patients with Parkinson's disease with dementia (PDD) was performed for the ANAVEX®2-73-PDD-001 study (FIG. 1) at two timepoints: Baseline and Week 14 (end of trial). All available RNA samples with […] (RNA integrity number, using 130 samples) were analyzed. The expression of 14,150 genes at these two timepoints were analyzed from both placebo and ANAVEX® 2-73 treated patients.
The above method was performed as illustrated in FIG. 2B. […] Then, the cluster's eigengene3 (one of a set of a genes matrix that tabulates the mRNA or gene expression of the genes across the sample) was used as summary of expression level of the cluster. […]

Which Overlap does the source give for CN(C)CC1CCOC1(c1ccccc1)c1ccccc1.Cl (centres unmarked) [ANAVEX2-73, tetrahydro-N,N-dimethyl-2,2-diphenyl-3-furanmethanamine hydrochloride] here?
Its Overlap is 13/273.

What about the “Number of pathways significantly overrepresented in first cluster” value (among its 37 pathways) of the same compound?
Its value is 10 pathways.

And the Overlap (genes of pathway in Cluster 1/genes in pathway, KEGG 2021, Alzheimer disease)?
Its Overlap is 15/369.

And the Overlap (genes of pathway in Cluster 1/genes in pathway, KEGG 2021, Amyotrophic lateral sclerosis)?
The Overlap was 14/364.

What about the Overlap (genes of pathway in Cluster 1/genes in pathway, KEGG 2021, Diabetic cardiomyopathy) of the same compound?
Its Overlap is 9/203.

And the Overlap (genes of pathway in Cluster 1/genes in pathway, KEGG 2021, Huntington disease)?
Its Overlap is 13/306.

And the Overlap (genes of pathway in Cluster 1/genes in pathway, KEGG 2021, Non-alcoholic fatty liver disease)?
The Overlap was 8/155.

What about the Overlap (genes of pathway in Cluster 1/genes in pathway, KEGG 2021, Oxidative phosphorylation) of the same compound?
The Overlap was 8/133.

And the Overlap (genes of pathway in Cluster 1/genes in pathway, KEGG 2021, Parkinson disease)?
Its Overlap is 12/249.

What about the Overlap (genes of pathway in Cluster 1/genes in pathway, KEGG 2021, Pathways of neurodegeneration) of the same compound?
Its Overlap is 15/475.

What about the Overlap (genes of pathway in Cluster 1/genes in pathway, KEGG 2021, Proteasome) of the same compound?
The Overlap was 4/46.
